Laboratory results published in ChEMBL document CHEMBL4219053, “Antiobesity and emetic effects of a short-length peptide YY analog and its PEGylated and alkylated derivatives” (Bioorg Med Chem, 2018).
Each block holds one compound with its values, some of them ahead of it.

What was measured:
[1] = Cmax in dog at 0.01 mg/kg, sc administered as bolus; type: ADME, organism-based, Canis lupus familiaris; set-up: dose 0.01 mg/kg, route subcutaneous; conditions: in vivo
[2] = Cmax in Beagle dog at 0.01 mg/kg, sc; type: ADME, organism-based, Canis lupus familiaris; set-up: dose 0.01 mg/kg, route subcutaneous; conditions: in vivo
[3] = Tmax in Beagle dog at 0.01 mg/kg, sc; type: ADME, organism-based, Canis lupus familiaris; conditions: in vivo
Canis familiaris [4] = assay: Emetic effect in Beagle dog at 0.01 mg/kg, sc measured after 1 hr; type: ADME, organism-based, Canis lupus familiaris; conditions: in vivo
[5] = Cmax in dog at 0.01 mg/kg/day, sc administered as infusion after 8 hrs; type: ADME, organism-based, Canis lupus familiaris; set-up: dose 0.01 mg/kg/day, route subcutaneous; conditions: in vivo
[6] = Cmax in dog at 0.003 mg/kg/day, sc administered as infusion after 8 hrs; type: ADME, organism-based, Canis lupus familiaris; set-up: dose 0.003 mg/kg/day, route subcutaneous; conditions: in vivo
Mus musculus [7] = assay: Emetic effect in DIO C57BL/6J mouse at 0.01 mg/kg, sc for 2 weeks; type: ADME, organism-based; conditions: in vivo, 336 h
Canis familiaris [8] = assay: Emetic effect in Beagle dog at 0.01 mg/kg, sc measured after 1 to 24 hrs; type: organism-based, Canis lupus familiaris; conditions: in vivo
Canis familiaris [9] = assay: Emetic effect in dog at 0.003 mg/kg/day, sc as infusion for 8 hrs; type: ADME, organism-based, Canis lupus familiaris; conditions: in vivo
[10] = Drug uptake in DIO C57BL/6J mouse serum at 0.01 mg/kg/day, sc for 2 weeks; type: ADME, organism-based; conditions: read-out: Drug uptake
[11] = Tmax in C57BL/6J mouse at 10 nmol/kg, sc by LC-MS/MS analysis; type: ADME, organism-based; conditions: in vivo
[12] = AUC (0 to 48 hrs) in C57BL/6J mouse at 10 nmol/kg, sc by LC-MS/MS analysis; type: ADME, organism-based; set-up: dose 10 nmol/kg, time < 48 hr, route subcutaneous; conditions: in vivo
Mus musculus [13] = assay: Antiobesity activity in DIO C57BL/6J mouse assessed as reduction in body weight at 10 nmol/kg, sc qd for 2 weeks; type: functional; set-up: scale not given: the % may be the effect or the level left
[14] = Mean residence time in C57BL/6J mouse at 10 nmol/kg, sc by LC-MS/MS analysis; type: ADME, organism-based; conditions: in vivo
[15] = Cmax in Beagle dog at 3 nmol/kg, sc; type: ADME, organism-based, Canis lupus familiaris; set-up: dose 3 nmol/kg, route subcutaneous; conditions: in vivo
[16] = Solubility of the compound in water; type: physicochemical; conditions: buffer
[17] = target: T1, Neuropeptide Y receptor type 2 (Homo sapiens, UniProt P49146); assay: Displacement of [125I]-PYY from human neuropeptide Y2 receptor expressed in CHO cell membranes incubated for 60 mins by TopCount micro scintillation analysis
T1 sequence (P49146 whole entry): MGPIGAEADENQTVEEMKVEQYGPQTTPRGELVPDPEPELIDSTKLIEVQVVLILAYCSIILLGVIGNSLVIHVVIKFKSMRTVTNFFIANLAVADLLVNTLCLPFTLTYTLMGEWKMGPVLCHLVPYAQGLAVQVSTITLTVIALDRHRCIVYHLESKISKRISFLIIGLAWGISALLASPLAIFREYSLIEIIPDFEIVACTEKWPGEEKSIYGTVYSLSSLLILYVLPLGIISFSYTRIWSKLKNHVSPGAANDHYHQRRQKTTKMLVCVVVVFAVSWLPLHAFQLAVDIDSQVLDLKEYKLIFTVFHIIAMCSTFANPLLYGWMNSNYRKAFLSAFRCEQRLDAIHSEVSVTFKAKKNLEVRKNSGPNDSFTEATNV

[18] = Tmax in Beagle dog at 3 nmol/kg, sc; type: ADME, organism-based, Canis lupus familiaris; conditions: in vivo
Mus musculus [19] = assay: Anorectic activity in C57BL/6J mouse assessed as inhibition of food intake at 30 nmol/kg, sc qd for 3 days relative to control; type: functional; conditions: 72 h
Mus musculus [20] = assay: Antiobesity activity in DIO C57BL/6J mouse assessed as reduction in body weight at 30 nmol/kg, sc qd for 2 weeks; type: functional; set-up: scale not given: the % may be the effect or the level left
[21] = Cmax in C57BL/6J mouse at 10 nmol/kg, sc by LC-MS/MS analysis; type: ADME, organism-based; set-up: dose 10 nmol/kg, route subcutaneous; conditions: in vivo
Mus musculus [22] = assay: Antiobesity activity in DIO C57BL/6J mouse assessed as reduction in body weight at 3 nmol/kg, sc qd for 2 weeks; type: functional; set-up: scale not given: the % may be the effect or the level left
Canis familiaris [23] = assay: Emetic effect in Beagle dog at 3 nmol/kg, sc measured after 4 to 8 hrs; type: ADME, organism-based, Canis lupus familiaris; conditions: in vivo
Canis familiaris [24] = assay: Emetic effect in Beagle dog at 3 nmol/kg, sc measured up to 4 hrs; type: ADME, organism-based, Canis lupus familiaris; conditions: in vivo

Cmax [1]: 2.9 ng/mL
Cmax [2]: 2.9 ng/mL
Tmax [3]: 0.6 h
Cmax [5]: 0.74 ng/mL
Cmax [6]: 0.18 ng/mL
concentration at 336 h [10]: 0.225 ng/mL
SMILES: CC[C@](C)(NC(=O)[C@H]1C[C@H](O)CN1C(=O)[C@H](CO)NC(=O)c1c[nH]cn1)C(=O)N[C@@H](Cc1ccncc1)C(=O)N[C@@H](CC1CCCCC1)C(=O)N[C@@H](CC(C)(C)C)C(=O)N[C@@H](CC(N)=O)C(=O)N[C@@H](CCCCN)C(=O)NC(C)(C)C(=O)N[C@H](C(=O)N[C@@H](CCCNC(=N)N)C(=O)N[C@@H](CCC(N)=O)C(=O)N[C@@H](CCCNC(=N)N)C(=O)N[C@@H](CC1CCCCC1)C(N)=O)[C@@H](C)O
Activity (Canis familiaris [4]): Toxic
Activity (Mus musculus [7]): Toxic
Activity (Canis familiaris [8]): Non-Toxic
Activity (Canis familiaris [9]): Toxic

Tmax [11]: 4 h
AUC(0-t) at 48 h [12]: 0.373 µM·h
MRT [14]: 9.3 h
Cmax [15]: 10.8 nM
solubility [16]: Soluble
IC50 [17]: 8 nM
Tmax [18]: 24 h
Cmax [21]: 32 nM
SMILES: C[C@@H](O)[C@H](NC(=O)C(C)(C)NC(=O)[C@H](CCCCNC(=O)[C@@H](N)CCCCNC(=O)COCC(=O)NCCCOCCOCCOCCCNC(=O)CC[C@H](NC(=O)[C@H]1CC[C@H](CNC(=O)CCCCCCCCCCCCCCCCCCC(=O)O)CC1)C(=O)O)NC(=O)[C@H](CC(N)=O)NC(=O)C(C)(C)NC(=O)[C@H](CC1CCCCC1)NC(=O)[C@H](Cc1ccncc1)NC(=O)[C@H](CCCNC(=N)N)NC(=O)[C@H]1C[C@H](O)CN1C(=O)[C@H](CO)NC(=O)c1c[nH]cn1)C(=O)N[C@@H](CCCNC(=N)N)C(=O)N[C@@H](CCC(N)=O)C(=O)N[C@@H](CCCNC(=N)N)C(=O)N[C@@H](CC1CCCCC1)C(N)=O
Activity (Mus musculus [13]): -16.5%
inhibition in vivo at 0.03 µmol/kg (Mus musculus [19]): 61%
Activity (Mus musculus [20]): -20.7%
Activity (Mus musculus [22]): -8%
Activity (Canis familiaris [23]): Toxic
Activity (Canis familiaris [24]): Non-Toxic
